Patent publication US20070128217A1 (priority 2003, published 2007)

Experiments:
[1] = test system: antibodies in sera from SARS patients (sera 1a, 1b, 2, 6, 37, 62, London, SARS-yellow, SARS-green); type: binding, human; set-up: Binding of serum 6 to linear peptides of protein X1 of SARS-CoV Urbani / Binding of serum 37 to linear peptides of protein X1 of SARS-CoV Urbani / Binding of serum 6 to looped/cyclic peptide (PEPSCAN-ELISA) / Binding of serum 37 to looped/cyclic peptide (PEPSCAN-ELISA) / Binding of serum 37 to looped/cyclic peptides of protein X1 of SARS-CoV Urbani / Binding of serum 6 to linear peptides of protein X2 / Binding of serum 37 to linear peptides of protein X2 / Binding of serum 37 to looped/cyclic peptides of protein X2 of SARS-CoV Urbani / Binding of serum 6 to linear peptides of protein M of SARS-CoV Urbani / Binding of serum 37 to linear peptides of protein M of SARS-CoV Urbani / Binding of serum 6 to looped/cyclic peptides of protein M of SARS-CoV Urbani / Binding of serum 37 to looped/cyclic peptides of protein M of SARS-CoV Urbani / Binding of serum 6 to linear peptides of protein X3 of SARS-CoV Urbani / Binding of serum 37 to linear peptides of protein X3 of SARS-CoV Urbani / Binding of serum 37 to looped/cyclic peptides of protein X3 of SARS-CoV Urbani / Binding of serum 6 to linear peptides of protein X4 of SARS-CoV Urbani / Binding of serum 37 to linear peptides of protein X4 of SARS-CoV Urbani / Binding of serum 37 to looped/cyclic peptides of protein X4 of SARS-CoV Urbani / Binding of serum 6 to linear peptides of protein X5 of SARS-CoV Urbani / Binding of serum 37 to linear peptides of protein X5 of SARS-CoV Urbani / Binding of serum 37 to looped/cyclic peptides of protein X5 of SARS-CoV Urbani / Binding of serum 6 to linear peptides of protein N of SARS-CoV Urbani / Binding of serum 37 to linear peptides of protein N of SARS-CoV Urbani / Binding of serum 6 to linear peptide (PEPSCAN-ELISA) / Binding of serum 1a to looped/cyclic peptides of protein N of SARS-CoV Urbani / Binding of serum 1b to looped/cyclic peptides of protein N of SARS-CoV Urbani / Binding of serum 2 to looped/cyclic peptides of protein N of SARS-CoV Urbani / Binding of serum 6 to looped/cyclic peptides of protein N of SARS-CoV Urbani / Binding of serum 37 to looped/cyclic peptides of protein N of SARS-CoV Urbani / Binding of serum 62 to looped/cyclic peptides of protein N of SARS-CoV Urbani / Binding of serum London to looped/cyclic peptides of protein N of SARS-CoV Urbani / Binding of serum SARS-green to looped/cyclic peptides of protein N of SARS-CoV Urbani: unit not given here
[2] = test system: recombinant human anti-SARS-CoV antibody 03-018; type: binding; set-up: Binding of antibody 03-018 to linear peptides of the N protein of SARS-CoV Urbani / Binding of antibody 03-018 to looped/cyclic peptides of the N protein of SARS-CoV Urbani: unit not given here
[3] = test system: control sera (pooled serum of ten healthy LUMC hospital workers; commercial negative donor pooled serum from the Dutch bloodbank); type: binding, human; set-up: Binding of Control serum LUMC to linear peptides / Binding of Control serum Blood-bank to linear peptides / Binding of Control serum LUMC to looped peptides / Binding of Control Serum Blood-Bank to Looped peptides / Binding of Control serum LUMC to linear peptides of the protein M of SARS-CoV Urbani / Binding of Control serum Blood-bank to linear peptides of the protein M of SARS-CoV Urbani / Binding of Control serum LUMC to looped peptides of the protein M of SARS-CoV Urbani / Binding of Control Serum Blood-Bank to Looped peptides of the protein M of SARS-CoV Urbani: unit not given here
[4] = test system: rabbit serum obtained by immunizing a rabbit with the SARS-CoV strain Frankfurt 1; type: binding; set-up: Binding of a rabbit serum to linear peptides / Binding of a rabbit serum to looped peptides / Rabbit serum linear peptides / Rabbit serum looped peptides / Binding of a rabbit serum to linear peptides of protein N of SARS-CoV Urbani (Rabbit serum linear peptides) / Binding of a rabbit serum to looped/cyclic peptides of protein N of SARS-CoV Urbani (Rabbit serum looped peptides): unit not given here

Sequence | Binding of serum 1a to linear peptides of protein N of SARS-CoV Urbani [1] | Binding of serum 1a to looped/cyclic peptides of protein N of SARS-CoV Urbani [1] | Binding of serum 1b to linear peptides of protein N of SARS-CoV Urbani [1] | Binding of serum 1b to looped/cyclic peptides of protein N of SARS-CoV Urbani [1] | Binding of serum 2 to linear peptides of protein N of SARS-CoV Urbani [1] | Binding of serum 2 to looped/cyclic peptides of protein N of SARS-CoV Urbani [1] | Binding of serum 6 to linear peptides of protein N of SARS-CoV Urbani [1] | Binding of serum 6 to looped/cyclic peptides of protein N of SARS-CoV Urbani [1] | Binding of serum 37 to linear peptides of protein N of SARS-CoV Urbani [1] | Binding of serum 37 to looped/cyclic peptides of protein N of SARS-CoV Urbani [1] | Binding of serum 62 to looped/cyclic peptides of protein N of SARS-CoV Urbani [1] | Binding of serum London to looped/cyclic peptides of protein N of SARS-CoV Urbani [1] | Binding of serum SARS-green to looped/cyclic peptides of protein N of SARS-CoV Urbani [1] | Binding of serum SARS-yellow to looped/cyclic peptides of protein N of SARS-CoV Urbani [1] | Binding of Control Serum Blood-Bank to Looped peptides [3] | Binding of Control serum Blood-bank to linear peptides [3] | Binding of Control serum LUMC to linear peptides [3] | Binding of Control serum LUMC to looped peptides [3] | Binding of a rabbit serum to linear peptides of protein N of SARS-CoV Urbani (Rabbit serum linear peptides) [4] | Binding of a rabbit serum to looped/cyclic peptides of protein N of SARS-CoV Urbani (Rabbit serum looped peptides) [4] | also measured
APRITFGGPTDSTDN | 0.2 | 0.4 | 0.2 | 0.2 | 0.2 | 0.3 | 0.2 | 0.2 | 0.8 | 0.6 | 0.6 | 0.2 | 0.6 | 0.4 | 0.6 | 0.6 | 0.5 | 0.6 | 0.2 | 0.6 | Binding of serum 62 to linear peptides of protein N of SARS-CoV Urbani [1]: 0.7; Binding of serum London to linear peptides of protein N of SARS-CoV Urbani [1]: 0.6; Binding of serum SARS-green to linear peptides of protein N of SARS-CoV Urbani [1]: 0.6; Binding of serum SARS-yellow to linear peptides of protein N of SARS-CoV Urbani [1]: 0.3; Recognition of the peptide by antibody 03-018 [2]: recognized
RPKQRRPQGLPNNTA | 0.3 | 0.3 | 0.1 | 0.1 | 0.3 | 0.3 | 0.2 | 0.3 | 0.7 | 0.5 | 0.5 | 0.4 | 0.2 | 0.3 | 0.4 | 0.8 | 0.7 | 0.5 | 0.4 | 0.4 | Binding of serum 62 to linear peptides of protein N of SARS-CoV Urbani [1]: 0.6; Binding of serum London to linear peptides of protein N of SARS-CoV Urbani [1]: 0.5; Binding of serum SARS-green to linear peptides of protein N of SARS-CoV Urbani [1]: 0.5; Binding of serum SARS-yellow to linear peptides of protein N of SARS-CoV Urbani [1]: 0.7; Binding of antibody 03-018 to linear peptides of the N protein of SARS-CoV Urbani [2]: 0.1; Binding of antibody 03-018 to looped/cyclic peptides of the N protein of SARS-CoV Urbani [2]: 0.2
GPQSNQRSAPRITFG | 0.2 | 0.3 | 0.1 | 0.2 | 0.2 | 0.3 | 0.1 | 0.3 | 0.6 | 0.6 | 0.4 | 0.4 | 0.3 | 0.8 | 0.7 | 0.6 | 0.5 | 0.8 |  |  | Binding of serum 62 to linear peptides of protein N of SARS-CoV Urbani [1]: 0.7; Binding of serum London to linear peptides of protein N of SARS-CoV Urbani [1]: 0.4; Binding of serum SARS-green to linear peptides of protein N of SARS-CoV Urbani [1]: 0.4; Binding of serum SARS-yellow to linear peptides of protein N of SARS-CoV Urbani [1]: 0.5; Recognition of the peptide by antibody 03-018 [2]: recognized; Recognition of the peptide by the rabbit serum [4]: also recognized
QASSRSSSRSRGNSR |  | 0.3 |  | 0.2 |  | 0.4 |  | 0.3 |  | 0.5 | 0.4 | 0.4 | 0.1 | 0.4 | 0.5 | 0.7 | 0.7 | 0.5 | 0.3 | 1.1 | Binding of serum 1a to linear peptide (PEPSCAN-ELISA) [1]: 0.2; Binding of serum 1b to linear peptide (PEPSCAN-ELISA) [1]: 0.1; Binding of serum 2 to linear peptide (PEPSCAN-ELISA) [1]: 0.3; Binding of serum 6 to linear peptide (PEPSCAN-ELISA) [1]: 0.3; Binding of serum 37 to linear peptide (PEPSCAN-ELISA) [1]: 0.6; Binding of serum 62 to linear peptide (PEPSCAN-ELISA) [1]: 0.6; Binding of serum London to linear peptide (PEPSCAN-ELISA) [1]: 0.5; Binding of serum SARS-green to linear peptide (PEPSCAN-ELISA) [1]: 0.2; Binding of serum SARS-yellow to linear peptide (PEPSCAN-ELISA) [1]: 0.6; Binding of antibody 03-018 to linear peptides of the N protein of SARS-CoV Urbani [2]: 0.1; Binding of antibody 03-018 to looped/cyclic peptides of the N protein of SARS-CoV Urbani [2]: 0.2
SSRSSSRSRGNSRNS |  | 0.3 |  | 0.3 |  | 0.4 |  | 0.3 |  | 0.5 | 0.6 | 0.5 | 0.3 | 0.4 | 0.7 | 0.7 | 0.7 | 0.7 | 0.2 | 0.7 | Binding of serum 1a to linear peptide (PEPSCAN-ELISA) [1]: 0.2; Binding of serum 1b to linear peptide (PEPSCAN-ELISA) [1]: 0.1; Binding of serum 2 to linear peptide (PEPSCAN-ELISA) [1]: 0.2; Binding of serum 6 to linear peptide (PEPSCAN-ELISA) [1]: 0.2; Binding of serum 37 to linear peptide (PEPSCAN-ELISA) [1]: 0.5; Binding of serum 62 to linear peptide (PEPSCAN-ELISA) [1]: 0.6; Binding of serum London to linear peptide (PEPSCAN-ELISA) [1]: 0.5; Binding of serum SARS-green to linear peptide (PEPSCAN-ELISA) [1]: 0.3; Binding of serum SARS-yellow to linear peptide (PEPSCAN-ELISA) [1]: 0.7; Binding of antibody 03-018 to linear peptides of the N protein of SARS-CoV Urbani [2]: 0.1; Binding of antibody 03-018 to looped/cyclic peptides of the N protein of SARS-CoV Urbani [2]: 0.2
